Source: patent publication US12459951B2, “Compounds that interact with RAS superfamily proteins for treatment of cancers, inflammatory diseases, rasopathies, and fibrotic disease” (SHY Therapeutics, LLC, priority 2022, dated 2025)

Assays:
KRas G12D mutant = test: Ras GTP Binding Domain Inhibition Assay (Ras Superfamily Assay); conditions: 20 μM compound
From the text: (§1) Biological Example 3: Ras GTP Binding Domain Inhibition Assay
(§2) The assays described in Example 3 are collectively referred to as the “Ras Superfamily Assay” throughout this application.
(§3) A Ras Superfamily Activity Assay (as disclosed in International Application No. PCT/US2018/038613, filed Jun. 20, 2018, which is incorporated by reference in its entirety) was used as a specific assay to evaluate compounds against the following for the following Ras Superfamily proteins: KRas wild type, KRas Q61H mutant, KRas G12C mutant, KRas G12D mutant, Rac-1, and Rho-A.
(§4) • 25 mM Tris-HCl, pH 7.4 • 27 mM KCl • 137 mM NaCl • 1 mM MgCl2 • 1 mM DTT Buffer-II: • 50 mM Tris-HCl, pH 7.0 • 1 mM MgCl2 • 1 mM DTT
(§5) The small GTPases proteins: KRas wild type. KRas Q61H mutant, KRas G12C mutant, KRas G12D mutants, Rac-1, and Rho-A were expressed as His-tagged proteins. In addition, the Guanosine nucleotide Exchange Factor (GEF) Sos protein (residues 556-1049) was expressed as a His-tagged protein. In cells, the guanine nucleotide exchange factor Sos protein promotes activation of Ras proteins by stimulating an exchange of GDP for GTP. The inclusion of Sos to the Ras GTP binding domain inhibition assay may be considered as an alternative representation of physiological cellular conditions for evaluating the inhibitory activity of some of the tested small molecules.
(§6) For the assay, all purified small GTPases proteins were diluted in Buffer-I or Buffer-II to a final concentration of 10-30 μg/mL. 200 μL of each diluted protein was added to a nickel-coated 96-well plate and incubated overnight at 4° C. Then the protein solution was discarded and 200 μL of Buffer-I or Buffer-II was added to each well in the presence of 1% DMSO. Compounds to be tested were added to the protein-coated wells at final concentration of 20 μM, and incubated for 3 hours at room temperature with and without 10-30 μg/mL of Sos added to the final hour of the incubation. When performing IC50 measurements a serial dilution of all tested concentrations was added. Then Cy3-GTP or Cy5-GTP was added to each well to a final concentration of 100 nM. The labeled GTP was incubated for 45 minutes at room temperature. Following GTP incubation, wells were washed 3× in Buffer-I or Buffer-II and 200 μL of Buffer-I or Buffer-II was added to each well. Following washes, the amount of bound labeled-GTP was measured using a SpectraMax M3 (Molecular Devices).

KRas wild type = test: as above; conditions: 20 μM compound
From the text: as §1, §2, §3, §4, §5, §6

Rac-1 = target: T1, Rac-1 (Homo sapiens, UniProt P63000); test: as above; conditions: read-out: Rac-1: % inh.
T1 construct: made in house
From the text: as §1, §2, §3, §4, §5, §6

IL6 = test: IL-6 Quantification Assay (ELISA), LPS-stimulated RAW 264.7; format: cell-based; set-up: inhibition: dose or concentration left out as unconfirmed; conditions: Mus musculus, RAW264.7; read-out: IL-6: % inh.
TNF-alpha = TNF-alpha Quantification Assay (ELISA), LPS-stimulated RAW 264.7; format: cell-based; conditions: Mus musculus, RAW264.7; at 10 μM; read-out: TNFα: % inh.

SMILES: COC(=O)c1c(-c2ccn(C)n2)cn2nc(-c3nccn3C)nc(N[C@H]3CC[C@H](OC)C3)c12 (racemic) [Compound 180, Methyl 4-(((1S,3S)-3-methoxycyclopentyl)amino)-2-(1-methyl-1H-imidazol-2-yl)-6-(1-methyl-1H-pyrazol-3-yl)pyrrolo[2,1-f][1,2,4]triazine-5-carboxylate]
- KRas G12D mutant + SOS: % inh. (KRas G12D mutant; with SOS): A (A = 1-25% inhibition)
- KRas G12D mutant: % inh. (KRas G12D mutant; without SOS): A (A = 1-25% inhibition)
- KRas wild type + SOS: % inh. (KRas wild type; with SOS): A (A = 1-25% inhibition)
- KRas wild type: % inh. (KRas wild type; without SOS): A (A = 1-25% inhibition)
- inhibition at 20 µM (Rac-1): 1 to 25%
- inhibition (IL6): 50 to 74%
- inhibition at 10 µM (TNF-alpha): 25 to 49%
